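These data come from cells grown in 96-well plates and exposed to compound for 48 hours at five concentrations. Abbreviation: GI50, concentration required for 50% inhibition of growth.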 Activity calls are given as the source filed them. Cut-off read from the data, not from the text of the source: active = GI50 up to about 1.1 µM and inactive = higher.
What was measured:
Experiment in all cases: NCI-60 cell line screen, 48 h
[1] = tested on: OVCAR-5
[2] = tested on: SR
[3] = tested on: OVCAR-8
[4] = tested on: HL-60
[5] = tested on: M14
[6] = tested on: UO-31
[7] = tested on: SK-MEL-28
[8] = tested on: HT-29
[9] = tested on: HCT-15
[10] = tested on: HCC 2998
[11] = tested on: SF-539
[12] = tested on: SF-268
[13] = tested on: 786-0
[14] = tested on: UACC-62
[15] = tested on: RPMI-8226
[16] = tested on: NCI-H226

Compound	GI50 [1]	GI50 [2]	GI50 [3]	GI50 [4]	GI50 [5]	GI50 [6]	GI50 [7]	GI50 [8]	GI50 [9]	GI50 [10]	GI50 [11]	GI50 [12]	GI50 [13]	GI50 [14]	GI50 [15]	GI50 [16]
[N-]=[N+]=NC1(Cc2ccccc2)C(=O)Nc2ccccc2C1=O (stereo not given)	> 100 µM (inactive)	> 100 µM (inactive)	> 100 µM (inactive)	> 100 µM (inactive)	> 100 µM (inactive)	39.6 µM (inactive)	> 100 µM (inactive)	> 100 µM (inactive)	> 100 µM	> 100 µM (inactive)	> 100 µM (inactive)	> 100 µM (inactive)	> 100 µM (inactive)	> 100 µM (inactive)	–	–
COc1ccc(/C=C/C(=O)c2cc(C(=O)O)c(OC)cc2OC)cc1OC	> 100 µM (inactive)	> 100 µM (inactive)	> 100 µM (inactive)	> 100 µM (inactive)	> 100 µM (inactive)	–	> 100 µM (inactive)	> 100 µM (inactive)	> 100 µM	–	> 100 µM (inactive)	> 100 µM (inactive)	> 100 µM (inactive)	> 100 µM (inactive)	> 100 µM (inactive)	> 100 µM (inactive)
CC(C)(C)c1cc(C2c3cc4c(cc3OC(O)(CO)C2C(=O)O)OCO4)cc(C(C)(C)C)c1O.CC(C)(C)c1cc(C2c3cc4c(cc3OC3(O)COC(=O)C23)OCO4)cc(C(C)(C)C)c1O (stereo not given)	–	–	10 µM (inactive)	7.73 µM (inactive)	14.7 µM (inactive)	13.6 µM (inactive)	11.3 µM (inactive)	13.5 µM (inactive)	8.2 µM	–	12.5 µM (inactive)	–	16.6 µM (inactive)	5 µM (inactive)	4.37 µM (inactive)	–
O=[PH](O)c1cc2ccccc2c2ccccc12	–	–	> 100 µM (inactive)	> 100 µM (inactive)	> 100 µM (inactive)	–	> 100 µM (inactive)	> 100 µM (inactive)	–	> 100 µM (inactive)	> 100 µM (inactive)	> 100 µM (inactive)	> 100 µM (inactive)	> 100 µM (inactive)	> 100 µM (inactive)	> 100 µM (inactive)
OC(CC1SCCCS1)c1ccccc1 (stereo not given)	> 100 µM (inactive)	–	> 100 µM (inactive)	> 100 µM (inactive)	> 100 µM (inactive)	> 100 µM (inactive)	–	> 100 µM (inactive)	> 100 µM	> 100 µM (inactive)	> 100 µM (inactive)	> 100 µM (inactive)	> 100 µM (inactive)	> 100 µM (inactive)	> 100 µM (inactive)	> 100 µM (inactive)
O=C1C(=O)N(C(=O)c2ccc(Cl)c(Cl)c2)c2ccc(Cl)cc21	> 100 µM (inactive)	89.7 µM (inactive)	> 100 µM (inactive)	20.3 µM (inactive)	> 100 µM (inactive)	> 100 µM (inactive)	> 100 µM (inactive)	> 100 µM (inactive)	–	–	> 100 µM (inactive)	> 100 µM (inactive)	> 100 µM (inactive)	> 100 µM (inactive)	35.6 µM (inactive)	> 100 µM (inactive)
O=C(c1ccco1)N(C(=S)N1CCN(c2ccccc2)CC1)C1CCCCC1	> 100 µM (inactive)	> 100 µM (inactive)	> 100 µM (inactive)	> 100 µM (inactive)	98.4 µM (inactive)	33.3 µM (inactive)	> 10 µM (inactive)	63.5 µM (inactive)	94.6 µM	–	> 100 µM (inactive)	> 100 µM (inactive)	> 100 µM (inactive)	> 100 µM (inactive)	> 100 µM (inactive)	–
COc1cc(Nc2nc3cc(C(F)(F)F)ccc3nc2C)cc(OC)c1OC	13.3 µM (inactive)	6.15 µM (inactive)	11 µM (inactive)	–	7.6 µM (inactive)	4.22 µM (inactive)	12.5 µM (inactive)	3 µM (inactive)	3.32 µM	3.61 µM (inactive)	12.2 µM (inactive)	16 µM (inactive)	12.2 µM (inactive)	3.94 µM (inactive)	–	5.14 µM (inactive)
COC(=O)c1c(C)cc2c(c1O)C1(O)C(=O)c3cc4c(c(O)c3C(=O)C1(OC)C(O)C2)C(=O)C=C(NC1OC(C)C(OC)C(O)C1OC)C4=O (stereo not given)	0.205 µM (active)	0.0405 µM (active)	0.0695 µM (active)	0.0194 µM (active)	0.119 µM (active)	0.14 µM (active)	–	0.0493 µM (active)	0.106 µM	0.138 µM (active)	0.0605 µM (active)	0.142 µM (active)	0.0753 µM (active)	0.0139 µM (active)	0.0157 µM (active)	0.189 µM (active)
COc1cc(CCc2ccc(N)cc2)cc(OC)c1OC	> 100 µM (inactive)	–	> 75.9 µM (inactive)	> 48 µM (inactive)	54.6 µM (inactive)	> 45.3 µM (inactive)	46 µM (inactive)	41.5 µM (inactive)	43.4 µM	> 47.8 µM (inactive)	26.1 µM (inactive)	> 69.3 µM (inactive)	> 92.7 µM (inactive)	38.7 µM (inactive)	64.6 µM (inactive)	> 76.2 µM (inactive)
CC(=O)OC(CC1(C)C(C)CCC23COC(=O)C2=CCCC31)c1ccoc1 (stereo not given)	28.2 µM (inactive)	–	20.3 µM (inactive)	–	16.3 µM (inactive)	19.1 µM (inactive)	17.7 µM (inactive)	29.6 µM (inactive)	20.4 µM	22.3 µM (inactive)	25.9 µM (inactive)	15.9 µM (inactive)	17.1 µM (inactive)	23.1 µM (inactive)	–	16.7 µM (inactive)
Cc1oc2c(C)c3oc(=O)cc(C)c3cc2c1CN	42.1 µM (inactive)	–	40.6 µM (inactive)	39 µM (inactive)	38.5 µM (inactive)	30.1 µM (inactive)	71 µM (inactive)	31.9 µM (inactive)	36.9 µM	28.1 µM (inactive)	40.9 µM (inactive)	31 µM (inactive)	39.9 µM (inactive)	92.3 µM (inactive)	39.4 µM (inactive)	34.4 µM (inactive)
COc1cc(-c2ccccc2)c(OC)cc1CCl	> 100 µM (inactive)	–	> 100 µM (inactive)	> 100 µM (inactive)	> 100 µM (inactive)	> 100 µM (inactive)	–	> 100 µM (inactive)	> 100 µM	> 100 µM (inactive)	> 100 µM (inactive)	> 100 µM (inactive)	> 100 µM (inactive)	> 100 µM (inactive)	> 100 µM (inactive)	> 100 µM (inactive)
C#C[C@]1(O)CC[C@H]2[C@@H]3CCc4cc(O)ccc4[C@H]3CC[C@@]21C [ETHINYL ESTRADIOL]	85.3 µM (inactive)	16.7 µM (inactive)	30.2 µM (inactive)	21.7 µM (inactive)	–	> 10 µM (inactive)	65.2 µM (inactive)	13 µM (inactive)	15.4 µM	18.3 µM (inactive)	17.6 µM (inactive)	44.1 µM (inactive)	34.6 µM (inactive)	34.3 µM (inactive)	–	20.3 µM (inactive)
C=C1C2CC(OC(C)=O)C3(C)C(c4ccoc4)OC(=O)[C@@H](O)[C@]13OC1C[C@H](OC(C)=O)C(C)(C)[C@H](CC(=O)OC)[C@]12C (stereo not given in full)	–	–	> 100 µM (inactive)	50.6 µM (inactive)	> 100 µM (inactive)	> 100 µM (inactive)	> 100 µM (inactive)	> 100 µM (inactive)	> 100 µM	> 100 µM (inactive)	> 100 µM (inactive)	–	> 100 µM (inactive)	> 100 µM (inactive)	> 100 µM (inactive)	> 100 µM (inactive)
Cc1ccccc1NC(=O)c1ccc([N+](=O)[O-])cc1	> 100 µM (inactive)	–	> 100 µM (inactive)	46.8 µM (inactive)	> 100 µM (inactive)	> 100 µM (inactive)	> 100 µM (inactive)	51.1 µM (inactive)	66.2 µM	> 100 µM (inactive)	> 100 µM (inactive)	> 100 µM (inactive)	> 100 µM (inactive)	> 100 µM (inactive)	> 100 µM (inactive)	> 100 µM (inactive)
O=C(Nc1ccc([N+](=O)[O-])cc1C(=O)O)c1ccc([N+](=O)[O-])cc1	45.8 µM (inactive)	–	32.1 µM (inactive)	17.1 µM (inactive)	36.2 µM (inactive)	34.3 µM (inactive)	31.1 µM (inactive)	29 µM (inactive)	20.8 µM	16 µM (inactive)	9.95 µM (inactive)	37.7 µM (inactive)	31.6 µM (inactive)	42.8 µM (inactive)	14.4 µM (inactive)	17.5 µM (inactive)
CCN(CC)CC1CCCCN1CC(=O)N1CC(C)C(=O)Nc2ccccc21 (stereo not given)	> 100 µM (inactive)	> 100 µM (inactive)	–	> 100 µM (inactive)	> 100 µM (inactive)	> 100 µM (inactive)	> 100 µM (inactive)	> 100 µM (inactive)	> 100 µM	> 100 µM (inactive)	–	> 100 µM (inactive)	> 100 µM (inactive)	> 100 µM (inactive)	> 100 µM (inactive)	> 100 µM (inactive)
N#C/C(=C\c1ccc(O)c(O)c1)C(N)=O	> 100 µM (inactive)	–	43.4 µM (inactive)	10.1 µM (inactive)	55.6 µM (inactive)	31.8 µM (inactive)	41 µM (inactive)	69.8 µM (inactive)	50.6 µM	53.1 µM (inactive)	30.5 µM (inactive)	35 µM (inactive)	20.6 µM (inactive)	52.7 µM (inactive)	15.5 µM (inactive)	37 µM (inactive)

Reference: ChEMBL document CHEMBL1201862, “PubChem BioAssay data set” (2004)
